Laboratory results: PubChem BioAssay (NCI)
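At the GI50, growth is halved. TGI: concentration producing complete growth inhibition.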

How the values were obtained:
Assay in all cases: growth of human tumour cells (NCI), 384-well format
786-0 renal = test system: 786-0 renal
A498 renal = test system: A498 renal
A549 NSCLC = test system: A549 NSCLC
ACHN renal = test system: ACHN renal
BT-549 breast = test system: BT-549 breast
CAKI-1 renal = test system: CAKI-1 renal
COLO 205 colon = test system: COLO 205 colon
DU-145 prostate = test system: DU-145 prostate
EKVX NSCLC = test system: EKVX NSCLC
HCC-2998 colon = test system: HCC-2998 colon
HCT-116 colon = test system: HCT-116 colon
HCT-15 colon = test system: HCT-15 colon
HL-60(TB) leukemia = test system: HL-60(TB) leukemia
HOP-62 NSCLC = test system: HOP-62 NSCLC
HOP-92 NSCLC = test system: HOP-92 NSCLC
HS 578T breast = test system: HS 578T breast
HT29 colon = test system: HT29 colon
IGROV1 ovarian = test system: IGROV1 ovarian
KM12 colon = test system: KM12 colon
LOX IMVI melanoma = test system: LOX IMVI melanoma
M14 melanoma = test system: M14 melanoma
MALME-3M melanoma = test system: MALME-3M melanoma
MCF7 breast = test system: MCF7 breast
MDA-MB-231 breast = test system: MDA-MB-231 breast
MDA-MB-435 melanoma = test system: MDA-MB-435 melanoma
MDA-MB-468 breast = test system: MDA-MB-468 breast
MOLT-4 leukemia = test system: MOLT-4 leukemia
NCI-H226 lung = test system: NCI-H226 lung
NCI-H23 lung = test system: NCI-H23 lung
NCI-H322M lung = test system: NCI-H322M lung
NCI-H460 NSCLC = test system: NCI-H460 NSCLC
NCI-H522 lung = test system: NCI-H522 lung
NCI/ADR-RES ovarian = test system: NCI/ADR-RES ovarian
OVCAR-3 ovarian = test system: OVCAR-3 ovarian
OVCAR-4 ovarian = test system: OVCAR-4 ovarian
OVCAR-5 ovarian = test system: OVCAR-5 ovarian
OVCAR-8 ovarian = test system: OVCAR-8 ovarian
PC-3 prostate = test system: PC-3 prostate
RPMI-8226 leukemia = test system: RPMI-8226 leukemia
RXF 393 renal = test system: RXF 393 renal
SF-295 CNS = test system: SF-295 CNS
SF-539 CNS = test system: SF-539 CNS
SK-MEL-28 melanoma = test system: SK-MEL-28 melanoma
SK-MEL-5 melanoma = test system: SK-MEL-5 melanoma
SK-OV-3 ovarian = test system: SK-OV-3 ovarian
SN12C renal = test system: SN12C renal
SNB-19 CNS = test system: SNB-19 CNS
SNB-75 CNS = test system: SNB-75 CNS
SR leukemia = test system: SR leukemia
T-47D breast = test system: T-47D breast
U251 glioblastoma = test system: U251 glioblastoma
UACC-62 melanoma = test system: UACC-62 melanoma
UO-31 renal = test system: UO-31 renal

In the case of `Cc1c(C(=O)Nc2ccc(N3C[C@@H](C)O[C@@H](C)C3)nc2)cccc1-c1ccc(OC(F)(F)F)cc1`, the GI50 (786-0 renal) is reported as 6.53 µM, the TGI (786-0 renal) is reported as 17.5 µM and the GI50 (A498 renal) is reported as 7 µM. It also gave a TGI (A498 renal) of 12.7 µM, a GI50 (A549 NSCLC) of 6.24 µM and a TGI (A549 NSCLC) of 11.7 µM. It also gave a GI50 (ACHN renal) of 11.4 µM, a TGI (ACHN renal) of 24.8 µM and a GI50 (BT-549 breast) of 8.61 µM. It also gave a TGI (BT-549 breast) of 22.1 µM, a GI50 (CAKI-1 renal) of 14.7 µM and a TGI (CAKI-1 renal) of 28 µM. It also gave a GI50 (COLO 205 colon) of 3.35 µM, a TGI (COLO 205 colon) of 4.86 µM and a GI50 (DU-145 prostate) of 8.5 µM. The TGI (DU-145 prostate) was 20.9 µM, the GI50 (EKVX NSCLC) was 5.38 µM and the TGI (EKVX NSCLC) was 12.6 µM. The GI50 (HCC-2998 colon) was 11.9 µM, the TGI (HCC-2998 colon) was 16.5 µM and the GI50 (HCT-116 colon) was 6.16 µM. For the same compound, the TGI (HCT-116 colon) was 17.8 µM, the GI50 (HCT-15 colon) was 7.15 µM and the TGI (HCT-15 colon) was 13.3 µM. The GI50 (HL-60(TB) leukemia) was 6.8 µM, the TGI (HL-60(TB) leukemia) was 12.7 µM and the GI50 (HOP-62 NSCLC) was 2.23 µM. For the same compound, the TGI (HOP-62 NSCLC) was 4.12 µM, the GI50 (HOP-92 NSCLC) was 5.92 µM and the TGI (HOP-92 NSCLC) was 14 µM. For the same compound, the GI50 (HS 578T breast) was 8.01 µM, the TGI (HS 578T breast) was 20.9 µM and the GI50 (HT29 colon) was 3.55 µM. It also gave a TGI (HT29 colon) of 5.04 µM, a GI50 (IGROV1 ovarian) of 12.3 µM and a TGI (IGROV1 ovarian) of 25.4 µM. It also gave a GI50 (KM12 colon) of 12 µM, a TGI (KM12 colon) of 16.6 µM and a GI50 (LOX IMVI melanoma) of 7.94 µM. It also gave a TGI (LOX IMVI melanoma) of 13.8 µM, a GI50 (M14 melanoma) of 16 µM and a TGI (M14 melanoma) of 30.4 µM. It also gave a GI50 (MALME-3M melanoma) of 7.69 µM, a TGI (MALME-3M melanoma) of 19.6 µM and a GI50 (MCF7 breast) of 7.5 µM. It also gave a TGI (MCF7 breast) of 13.7 µM, a GI50 (MDA-MB-231 breast) of 3.63 µM and a TGI (MDA-MB-231 breast) of 14.8 µM. The GI50 (MDA-MB-435 melanoma) was 17.6 µM, the TGI (MDA-MB-435 melanoma) was 32.7 µM and the GI50 (MDA-MB-468 breast) was 5.63 µM. The TGI (MDA-MB-468 breast) was 11.3 µM, the GI50 (MOLT-4 leukemia) was 4.21 µM and the TGI (MOLT-4 leukemia) was 15.4 µM. It also gave a GI50 (NCI-H226 lung) of 6.16 µM, a TGI (NCI-H226 lung) of 12.8 µM and a GI50 (NCI-H23 lung) of 7.39 µM. It also gave a TGI (NCI-H23 lung) of 13.5 µM, a GI50 (NCI-H322M lung) of 13.3 µM and a TGI (NCI-H322M lung) of 26.3 µM. It also gave a GI50 (NCI-H460 NSCLC) of 9.46 µM, a TGI (NCI-H460 NSCLC) of 14.5 µM and a GI50 (NCI-H522 lung) of 1.9 µM. The TGI (NCI-H522 lung) was 3.79 µM, the GI50 (NCI/ADR-RES ovarian) was 5.04 µM and the TGI (NCI/ADR-RES ovarian) was 18 µM. It also gave a GI50 (OVCAR-3 ovarian) of 10.6 µM, a TGI (OVCAR-3 ovarian) of 15.3 µM and a GI50 (OVCAR-4 ovarian) of 4.99 µM. For the same compound, the TGI (OVCAR-4 ovarian) was 14.9 µM, the GI50 (OVCAR-5 ovarian) was 16.6 µM and the TGI (OVCAR-5 ovarian) was 30.7 µM. The GI50 (OVCAR-8 ovarian) was 10.6 µM, the TGI (OVCAR-8 ovarian) was 15.3 µM and the GI50 (PC-3 prostate) was 12.4 µM. The TGI (PC-3 prostate) was 25 µM, the GI50 (RPMI-8226 leukemia) was 6.67 µM and the TGI (RPMI-8226 leukemia) was 12.7 µM. The GI50 (RXF 393 renal) was 4.85 µM, the TGI (RXF 393 renal) was 8.09 µM and the GI50 (SF-295 CNS) was 8.16 µM. The GI50 (SF-539 CNS) was 11.2 µM, the TGI (SF-539 CNS) was 18.1 µM and the GI50 (SK-MEL-28 melanoma) was 12.3 µM. The TGI (SK-MEL-28 melanoma) was 17.8 µM, the GI50 (SK-MEL-5 melanoma) was 7.06 µM and the TGI (SK-MEL-5 melanoma) was 13.1 µM. It also gave a GI50 (SK-OV-3 ovarian) of 3.89 µM, a TGI (SK-OV-3 ovarian) of 5.34 µM and a GI50 (SN12C renal) of 13.7 µM. For the same compound, the TGI (SN12C renal) was 26.8 µM, the GI50 (SNB-19 CNS) was 15 µM and the TGI (SNB-19 CNS) was 28.4 µM. The GI50 (SNB-75 CNS) was 5.67 µM, the GI50 (SR leukemia) was 5.32 µM and the TGI (SR leukemia) was 13.4 µM. It also gave a GI50 (T-47D breast) of 1.47 µM, a TGI (T-47D breast) of 3.43 µM and a GI50 (U251 glioblastoma) greater than 31.6 µM. It also gave a TGI (U251 glioblastoma) greater than 31.6 µM, a GI50 (UACC-62 melanoma) of 13 µM and a TGI (UACC-62 melanoma) of 17.5 µM. The GI50 (UO-31 renal) was greater than 40.2 µM and the TGI (UO-31 renal) was greater than 54.6 µM.
